Results from patent US12139492B2 (Endotarget Inc., priority 2021, dated 2024).
pIC50: −log10 of the molar value. Where two headings read alike, the source gives them in different places.

Assays:
BTK = BTK (Homo sapiens, UniProt Q06187); test: Degradation of BTK protein in Namalwa cells (Western blot; DC50, Dmax)
Mino cells = test: Antiproliferative effect, MTS cell viability assay, Mino cells; type: cell-based; conditions: Mino mantle cell lymphoma cells, read-out: IC50 (anti-proliferation) Mino cells
Method in brief: (§1)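 Mino and JeKo-1 mantle B-cell lymphoma lines were exposed to compound at 0, 0.001, 0.01, 0.1, 1 and 10 μM for 72 h. Viability was read by MTS reduction to formazan, measured as absorbance at 490 nm.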

JeKo-1 cells = test: Antiproliferative effect, MTS cell viability assay, JeKo-1 cells; type: cell-based; conditions: JeKo-1 mantle cell lymphoma cells, read-out: IC50 (anti-proliferation) JeKO-1 cells
Method in brief: as §1

[1] = read-out: DC50 (BTK degradation), concentration giving 50% reduction of BTK expression level, cell line not given
[2] = BTK degradation, cell line not given
[3] = read-out: Dmax (BTK degradation)

Chain of BTK (Q06187 whole entry): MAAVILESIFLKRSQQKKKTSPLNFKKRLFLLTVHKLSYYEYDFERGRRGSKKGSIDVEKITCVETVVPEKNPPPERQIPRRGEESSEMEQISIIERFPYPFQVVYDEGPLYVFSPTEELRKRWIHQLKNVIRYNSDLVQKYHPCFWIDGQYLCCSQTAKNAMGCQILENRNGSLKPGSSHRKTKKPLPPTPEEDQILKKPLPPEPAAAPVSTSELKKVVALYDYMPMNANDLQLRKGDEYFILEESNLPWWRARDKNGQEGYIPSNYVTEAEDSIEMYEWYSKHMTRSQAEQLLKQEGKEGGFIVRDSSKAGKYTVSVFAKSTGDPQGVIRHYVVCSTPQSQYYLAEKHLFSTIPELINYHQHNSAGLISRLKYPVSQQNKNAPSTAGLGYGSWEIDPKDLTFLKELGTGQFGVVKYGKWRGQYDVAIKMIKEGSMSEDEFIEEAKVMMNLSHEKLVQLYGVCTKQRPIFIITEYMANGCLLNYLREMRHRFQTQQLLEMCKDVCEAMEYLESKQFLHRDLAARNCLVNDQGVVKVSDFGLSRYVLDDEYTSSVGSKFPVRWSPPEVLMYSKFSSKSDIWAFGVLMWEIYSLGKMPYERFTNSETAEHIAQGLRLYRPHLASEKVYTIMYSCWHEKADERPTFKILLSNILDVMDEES

Row | DC50 (BTK; [1]) | Dmax (BTK) | DC50 (BTK; [2]) | Dmax (BTK; [3]) | Structure (SMILES) | Dmax (BTK degradation) (BTK; cell line not given) | pIC50 (Mino cells) | pIC50 (JeKo-1 cells) | pIC50 (Mino cells; Homo sapiens, MINO) | pIC50 (JeKo-1 cells; Homo sapiens)
1 | < 0.01 µM |  |  | > 90% | Nc1ncnc2c1c(-c1ccc(Oc3ccccc3)cc1)nn2C1CCN(C(=O)C2CN(C3CCN(c4ccc5c(c4)C(=O)N(C4CCC(=O)NC4=O)C5=O)CC3)C2)CC1 (stereo not shown) [Compound 509, 5-(4-(3-(4-(4-amino-3-(4-phenoxyphenyl)-1H-pyrazolo[3,4-d]pyrimidin-1-yl)piperidine-1-carbonyl)azetidin-1-yl)piperidin-1-yl)-2-(2,6-dioxopiperidin-3-yl)isoindoline-1,3-dione] |  |  |  | > 6.00 | > 6.00
2 |  | > 75% | > 0.05 µM |  | Nc1ncnc2c1c(-c1ccc(Oc3ccccc3)cc1)nn2[C@@H]1CCCN(C2CCN(C(=O)N3CCC(CCCC4CCN(c5ccc6c(c5)C(=O)N(C5CCC(=O)NC5=O)C6=O)CC4)CC3)CC2)C1 (stereo partly drawn) [Compound 195, 5-(4-(3-(1-((R)-3-(4-amino-3-(4-phenoxyphenyl)-1H-pyrazolo[3,4-d]pyrimidin-1-yl)-[1,4′-bipiperidine]-1′-carbonyl)piperidin-4-yl)propyl)piperidin-1-yl)-2-(2,6-dioxopiperidin-3-yl)isoindoline-1,3-dione] |  |  |  | < 5.00 | 5.00 to 6.00
3 |  | > 90% | < 0.01 µM |  | Nc1ncnc2c1c(-c1ccc(Oc3ccccc3)cc1)nn2C1CCN(C2CCN(C(=O)N3CCC(CN4CCC(c5ccc6c(c5)C(=O)N(C5CCC(=O)NC5=O)C6=O)CC4)CC3)CC2)CC1 (stereo not shown) [Compound 243, 5-(1-((1-(4-(4-amino-3-(4-phenoxyphenyl)-1H-pyrazolo[3,4-d]pyrimidin-1-yl)-[1,4′-bipiperidine]-1′-carbonyl)piperidin-4-yl)methyl)piperidin-4-yl)-2-(2,6-dioxopiperidin-3-yl)isoindoline-1,3-dione] |  |  |  | 5.00 to 6.00 | 5.00 to 6.00

Continued, compound first:

Row | Structure (SMILES) | DC50 (BTK; [1]) | Dmax (BTK) | DC50 (BTK; [2]) | Dmax (BTK; [3]) | Dmax (BTK degradation) (BTK; cell line not given) | pIC50 (Mino cells) | pIC50 (JeKo-1 cells) | pIC50 (Mino cells; Homo sapiens, MINO) | pIC50 (JeKo-1 cells; Homo sapiens)
4 | Nc1ncnc2c1c(-c1ccc(Oc3ccccc3)cc1)nn2C1CCN(CCN2CCC(N3CCN(c4ccc5c(c4)C(=O)N(C4CCC(=O)NC4=O)C5=O)CC3)C2)CC1 (single isomer, unassigned) [Compound 459b, 5-(4-(1-(2-(4-(4-amino-3-(4-phenoxyphenyl)-1H-pyrazolo[3,4-d]pyrimidin-1-yl)piperidin-1-yl)ethyl)pyrrolidin-3-yl)piperazin-1-yl)-2-(2,6-dioxopiperidin-3-yl)isoindoline-1,3-dione] | < 0.01 µM |  |  |  | A (A >90%) | > 6.00 | > 6.00 |  | 
5 | Nc1ncnc2c1c(-c1ccc(Oc3ccccc3)cc1)nn2C1CCN(C2CCN(C(=O)N3CCN(CCN4CCC(c5ccc6c(c5)CN(C5CCC(=O)NC5=O)C6=O)CC4)CC3)CC2)CC1 (stereo not shown) [Compound 250] |  | > 90% | 0.01 to 0.05 µM |  |  |  |  | 5.00 to 6.00 | 5.00 to 6.00
6 | Nc1ncnc2c1c(-c1ccc(Oc3ccccc3)cc1)nn2C1CCN(CCN2CCC(CN3CCC(c4ccc(N5CCC(=O)NC5=O)cc4)CC3)C2)CC1 (stereo not shown) [Compound 548, 1-(4-(1-((1-(2-(4-(4-amino-3-(4-phenoxyphenyl)-1H-pyrazolo[3,4-d]pyrimidin-1-yl)piperidin-1-yl)ethyl)pyrrolidin-3-yl)methyl)piperidin-4-yl)phenyl)dihydropyrimidine-2,4(1H,3H)-dione] | < 0.01 µM |  |  | > 75% |  |  |  | > 6.00 | > 6.00
7 | NC(=O)c1c(-c2ccc(Oc3ccccc3)cc2)nn2c1NCCC2C1CCN(C2CCN(C(=O)N3CCC(CC4CCN(c5ccc6c(c5)CN(C5CCC(=O)NC5=O)C6=O)CC4)CC3)CC2)CC1 (stereo not shown) [Compound 354, 7-(1′-(4-((1-(2-(2,6-dioxopiperidin-3-yl)-1-oxoisoindolin-5-yl)piperidin-4-yl)methyl)piperidine-1-carbonyl)-[1,4′-bipiperidin]-4-yl)-2-(4-phenoxyphenyl)-4,5,6,7-tetrahydropyrazolo[1,5-a]pyrimidine-3-carboxamide] |  | > 90% | 0.01 to 0.05 µM |  |  |  |  | 5.00 to 6.00 | 5.00 to 6.00
